From patent US5932551A, “Substituted N-carboxyalkylpeptidyl derivatives as antidegenerative active agents” (Merck & Co., Inc., priority 1997, dated 1999) come the findings set out here.

Format in all cases: biochemical
One experiment concerns the target T1, collagenase (Homo sapiens, UniProt P03956).
T1 sequence (P03956 100-469): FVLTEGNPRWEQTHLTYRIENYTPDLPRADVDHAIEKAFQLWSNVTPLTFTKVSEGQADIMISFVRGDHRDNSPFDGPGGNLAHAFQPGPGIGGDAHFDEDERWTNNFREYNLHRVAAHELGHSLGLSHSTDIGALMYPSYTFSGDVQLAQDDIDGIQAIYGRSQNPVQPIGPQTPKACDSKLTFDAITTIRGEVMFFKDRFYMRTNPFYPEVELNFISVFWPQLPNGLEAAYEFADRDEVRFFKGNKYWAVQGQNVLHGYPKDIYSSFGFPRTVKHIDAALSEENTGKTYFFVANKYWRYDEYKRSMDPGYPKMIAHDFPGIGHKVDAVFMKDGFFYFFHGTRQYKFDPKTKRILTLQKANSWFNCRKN
The experiment in a line: Inhibition of collagenase cleavage of thioester peptide Ac-Pro-Leu-Gly-S-Leu-Leu-Gly-OC2H5. The conditions noted are these: read-out: Inhibition of Collagenase pH = 6.5 (IC50). The text has this:
(§1) The peptide portion is herein designated SEQ ID No: 2:.

In experiment [1] the target is T2, 72 kD Galatinase (gelatinase) (Homo sapiens, UniProt P08253).
T2 sequence (P08253 110-660): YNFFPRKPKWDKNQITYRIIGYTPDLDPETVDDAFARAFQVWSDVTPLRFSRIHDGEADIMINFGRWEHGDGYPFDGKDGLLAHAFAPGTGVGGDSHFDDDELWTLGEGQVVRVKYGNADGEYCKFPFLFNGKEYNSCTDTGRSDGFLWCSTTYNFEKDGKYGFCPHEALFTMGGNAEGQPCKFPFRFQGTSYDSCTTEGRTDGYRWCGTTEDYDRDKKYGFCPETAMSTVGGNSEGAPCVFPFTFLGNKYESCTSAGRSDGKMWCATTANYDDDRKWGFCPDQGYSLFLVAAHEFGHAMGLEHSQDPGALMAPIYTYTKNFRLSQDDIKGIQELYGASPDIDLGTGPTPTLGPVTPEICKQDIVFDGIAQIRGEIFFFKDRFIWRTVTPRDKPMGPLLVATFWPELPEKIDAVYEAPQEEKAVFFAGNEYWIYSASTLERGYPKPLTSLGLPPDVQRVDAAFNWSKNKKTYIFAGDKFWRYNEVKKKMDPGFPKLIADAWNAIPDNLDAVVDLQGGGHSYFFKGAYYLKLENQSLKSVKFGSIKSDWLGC
The experiment in a line: Inhibition of gelatinase-mediated cleavage of fluorogenic substrate Dnp-Pro-Leu-Gly-Leu-Trp-Ala-D-ArgNH2. Conditions: pH = 7.5.
Description: as §1

A further experiment deals with stromelysin (Homo sapiens, UniProt P08254). In words: Inhibition of stromelysin-mediated hydrolysis of substance P (HPLC-based assay). The conditions noted are these: pH = 7.5.
Sequence of stromelysin (P08254 100-477): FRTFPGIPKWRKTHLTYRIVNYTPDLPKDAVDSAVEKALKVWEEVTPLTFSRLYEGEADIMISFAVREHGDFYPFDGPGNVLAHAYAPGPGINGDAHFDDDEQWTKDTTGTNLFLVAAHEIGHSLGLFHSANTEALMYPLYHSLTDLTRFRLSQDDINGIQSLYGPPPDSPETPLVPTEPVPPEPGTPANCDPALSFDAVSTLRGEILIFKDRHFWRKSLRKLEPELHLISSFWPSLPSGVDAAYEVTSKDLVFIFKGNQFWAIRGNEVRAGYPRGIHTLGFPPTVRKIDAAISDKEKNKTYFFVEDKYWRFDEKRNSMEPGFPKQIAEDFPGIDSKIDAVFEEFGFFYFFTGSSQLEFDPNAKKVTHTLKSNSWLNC

For `CC(C)C[C@H](NC(=O)[C@H](CCc1ccccc1)N[C@H](C)C(=O)O)C(=O)Nc1ccccc1` [5a, N-[1(R)-Carboxy-ethyl]-α-(S)-(2-phenyl-ethyl)glycine-(L)-leucine, N-phenylamide], at collagenase, the IC50 is 60 nM. In experiment [1], this molecule displayed a Ki of 930 nM.

In the case of `CC(C)C[C@H](NC(=O)[C@H](CCc1ccccc1)N[C@H](CCCCN1C(=O)c2ccccc2C1=O)C(=O)O)C(=O)Nc1ccccc1` [5d], the IC50 at collagenase stood at 250 nM; against stromelysin, 200 nM. This molecule also gave a Ki in experiment [1] of 86 nM.
